In patent US8895581B2, “1H-imidazo[4,5-c]quinolines” (Boehringer Ingelheim International GmbH, priority 2010, dated 2014):

target: Recombinant human PDK1 enzyme (aa 52-556) (Homo sapiens (Human), UniProt O15530); assay: PDK1 kinase assay; type: biochemical; settings: 25 μM ATP solution with gamma-P33-ATP, PDKtide substrate, 90 min at RT
Experimental: The activity of the compounds according to the invention on the kinase PDK1 which inhibits the signal transduction pathway is determined in an in vitro kinase assay with recombinantly prepared protein:
Recombinant human PDK1 enzyme (aa 52-556) linked at its N-terminal end to His6 is isolated from baculovirus-infected insect cells. Purified enzyme may be obtained for example from the University of Dundee, Scotland. The following components are combined in a well of a 96-well round-based dish (Greiner bio-one, No. 650101): • 1. 15 μL of compound to be tested in varying concentrations (e.g. starting at 10 μM, and diluted in steps of 1:5) in APT buffer (50 mM Tris/Cl pH7.5; 0.05% β-mercaptoethanol; 10 mM Mg-acetate; 0.0166% Tween 20; 3.33% DMSO) • 2. 15 μL His6-PDK1 (aa 52-556) 3.33 ng/well) and PDKtide (KTFCGTPEYLAPEVRRE […]), synthesised by Pepceuticals Limited, Nottingham, United Kingdom; 25 μM final concentration); His6-PDK1 and PDKtide are together diluted accordingly in assay buffer (50 mM tris pH 7.5, 0.05% β-mercaptoethanol, 10 mM Mg-acetate); PDKtide is present in this mixture as an 83.3 μM solution. These 30 μl are routinely incubated for 30 min at RT. • 3. 20 μL ATP solution (25 μM ATP with 1.0 μCi/well gamma-P33-ATP). The final concentration of Tween 20 is 0.005%.
The reaction is started by adding the ATP solution and the mixture is incubated for 90 min at RT. At the start of the reaction the dishes are shaken gently. The reaction is stopped by the addition of 50 μL/well of 500 mM phosphoric acid (H3PO4) and incubated for about 20 min at RT. The precipitate is transferred by harvesting onto filter plates (96-well microtitre filter plate: UniFilter GF/C; Perkin Elmer; No. 6005174), then washed 6 times with 50 mM H3PO4 and dried at 60° C. Then the plate is stuck down with sealing tape, 25 μL/well of scintillation solution (Microscint 0; Perkin Elmer; No. 6013611) are added and the amount of P33 precipitated is measured using the Wallac Betacounter. The measured data are evaluated using Graphpad Prism software.

Chain of Recombinant human PDK1 enzyme (aa 52-556) (O15530 52-556): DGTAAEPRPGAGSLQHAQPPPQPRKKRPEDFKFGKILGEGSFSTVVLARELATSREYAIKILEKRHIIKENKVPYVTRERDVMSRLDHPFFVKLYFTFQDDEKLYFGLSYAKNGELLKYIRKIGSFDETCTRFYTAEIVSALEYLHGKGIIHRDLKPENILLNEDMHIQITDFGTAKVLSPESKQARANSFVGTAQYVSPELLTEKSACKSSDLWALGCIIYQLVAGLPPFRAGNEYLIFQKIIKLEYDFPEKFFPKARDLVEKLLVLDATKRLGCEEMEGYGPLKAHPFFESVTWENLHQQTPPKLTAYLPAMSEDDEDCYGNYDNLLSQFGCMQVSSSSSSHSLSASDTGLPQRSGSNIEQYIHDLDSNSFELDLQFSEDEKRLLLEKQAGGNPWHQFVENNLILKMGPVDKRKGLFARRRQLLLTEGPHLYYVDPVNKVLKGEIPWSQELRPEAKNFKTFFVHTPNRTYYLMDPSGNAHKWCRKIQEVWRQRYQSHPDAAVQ

First: CCOc1cc(C(=O)NCC#Cc2ccc3ncc4ncn(C(C)C)c4c3c2)c(=O)n(Cc2ccc(F)c(F)c2)n1 [IV-1, 2-(3,4-difluorobenzyl)-6-ethoxy-3-oxo-2,3-dihydro-pyridazine-4-carboxylic acid [3-(1-isopropyl-1H-imidazo[4,5-c]quinolin-8-yl)-prop-2-ynyl]-amide]
Second: CCOc1nc2cnc3ccc(C#CCNC(=O)c4cncn(Cc5ccc(F)c(F)c5)c4=O)cc3c2n1C [V-1, 1-(3,4-difluoro-benzyl)-6-oxo-1,6-dihydro-pyrimidine-5-carboxylic acid [3-(2-ethoxy-1-methyl-1H-imidazo[4,5-c]quinolin-8-yl)-prop-2-ynyl]-amide]
The IC50 of the first is 6.6-fold lower: 0.005 µM for the first, 0.033 µM for the second. The first is the more potent here.

Going from `Cn1c(-c2ccccc2)nc2cnc3ccc(C#CCNC(=O)c4cncn(Cc5ccc(F)c(F)c5)c4=O)cc3c21` [V-2] to `CCc1nc2cnc3ccc(C#CCNC(=O)c4cncn(Cc5ccc(F)c(F)c5)c4=O)cc3c2n1C` [V-3], the IC50 falls from 0.072 µM to 0.008 µM (9-fold). The second is the more potent here.

Compared with `COc1nc2cnc3ccc(C#CCNC(=O)c4cncn(Cc5ccc(F)c(F)c5)c4=O)cc3c2n1C` [V-4], `COCc1nc2cnc3ccc(C#CCNC(=O)c4cncn(Cc5ccc(F)c(F)c5)c4=O)cc3c2n1C` [V-7] is 2.3-fold higher in IC50: 0.018 µM for the first, 0.041 µM for the second. The first is the more potent here.

`COCCc1nc2cnc3ccc(C#CCNC(=O)c4cncn(Cc5ccc(F)c(F)c5)c4=O)cc3c2n1C` [V-5, 1-(3,4-difluoro-benzyl)-6-oxo-1,6-dihydro-pyrimidine-5-carboxylic acid {3-[2-(2-methoxy-ethyl)-1-methyl-1H-imidazo[4,5-c]quinolin-8-yl]-prop-2-ynyl}-amide] and `CN(C)CCc1nc2cnc3ccc(C#CCNC(=O)c4cncn(Cc5ccc(F)c(F)c5)c4=O)cc3c2n1C` [V-10] are within 1.5-fold of each other in IC50: 0.024 µM for the first, 0.022 µM for the second.

First: Cn1c(CF)nc2cnc3ccc(C#CCNC(=O)c4cncn(Cc5ccc(F)c(F)c5)c4=O)cc3c21 [V-6, 1-(3,4-difluoro-benzyl)-6-oxo-1,6-dihydro-pyrimidine-5-carboxylic acid [3-(2-fluoromethyl-1-methyl-1H-imidazo[4,5-c]quinolin-8-yl)-prop-2-ynyl]-amide]
Second: CN(C)Cc1nc2cnc3ccc(C#CCNC(=O)c4cncn(Cc5ccc(F)c(F)c5)c4=O)cc3c2n1C [V-8, 1-(3,4-difluoro-benzyl)-6-oxo-1,6-dihydro-pyrimidine-5-carboxylic acid [3-(2-dimethylaminomethyl-1-methyl-1H-imidazo[4,5-c]quinolin-8-yl)-prop-2-ynyl]-amide]
The IC50 of the first is 4.2-fold lower: 0.019 µM for the first, 0.079 µM for the second. The first is the more potent here.

In the case of `CN(C)CCCc1nc2cnc3ccc(C#CCNC(=O)c4cncn(Cc5ccc(F)c(F)c5)c4=O)cc3c2n1C` [V-9], the IC50 is reported as 0.006 µM.
